From patent US11147272B2, “Pyridone compounds and agricultural and horticultural fungicides comprising the same as active ingredients” (MITSUI CHEMICALS AGRO, INC., priority 2017, dated 2021)

Assays:
[1] = system: Magnaporthe grisea; assay: whole plant or invertebrate; format: in vivo; conditions: Blast on rice; control value class
[2] = system: Alternaia brassicicola; assay: Test Example C: Alternaria sooty spot on cabbage; format: in vivo; conditions: Alternaria sooty spot on cabbage; control value class
Text: Seeds of a test plant (cabbage variety: Shikidori) were planted and cultivated until the cotyledons extended.
<Control Value> Control value=100{1−(n/3)}

[3] = system: Puccinia recondita; assay: Test Example E: Brown rust on wheat; format: in vivo; conditions: Brown rust on wheat; control value class
[4] = system: Phytophthora infestans; assay: whole plant or invertebrate; format: in vivo; conditions: Late blight on tomato; control value class
[5] = system: Botrytis cinerea; assay: Test Example B: Gray mold on tomato; conditions: Gray mold on tomato; control value class
[6] = system: Plasmopara viticola; assay: Test Example G: Downy mildew on vine; conditions: Downy mildew on vine; 250 ppm spray, 7 to 10 days after inoculation
Experimental: Seeds of a test plant (grape variety: Neomuscat) were planted and cultivated until three to four first leaves appeared. In the test, the inventive compounds were dissolved into dimethyl sulfoxide-methanol mixture solution (volume ratio: 9/1), and the resultant solutions were diluted with well water to a concentration of 250 ppm to obtain the drug solutions. The drug solutions were sprayed to the test plant (2.5 ml/pot). After the drug solutions dried, a zoosporangia suspension (1-2×10^4 zoosporangia/ml) of Plasmopara viticola was inoculated to the plant by spraying. After the inoculation, the plant was kept in a mist chamber at room temperature of 20° C. for about 24 hours to promote the onset of disease. The degrees of disease development were investigated 7 to 10 days after the inoculation, and the effectiveness of the drug solutions was evaluated.
In Test Examples described above, the degrees of disease development were evaluated in increments of 0.05 from 0 (as no incidence of disease) to 3 (as the degree of disease development in an untreated plant group). Further, control values were calculated using the following equation based on the degree of disease development.
n=Degree of disease development in each treated group

[7] = system: Colletotrichum orbiculare; assay: Test Example H: Anthracnose on cucumber; conditions: Anthracnose on cucumber; 250 ppm spray, 6 to 10 days after inoculation
[8] = system: Blumeria graminis f. sp. hordei; assay: Test Example D: Powdery mildew on barley; conditions: Powdery mildew on barley; control value class

Row | SMILES | Test A control value [1] | Test C control value [2] | Test E control value [3] | Test F control value [4] | Test B control value [5] | Test G control value [6] | Test H control value [7] | Test D control value [8]
1 | CCCc1cc(Cl)c(=O)n(CC)c1-c1ccc(OC)cc1Cl [compound 320] | H (more than 50% control value) | H (more than 50% control value) | H (more than 50% control value) | H (more than 50% control value) | H (more than 50% control value) | H (more than 50% control value) | H (more than 50% control value) | H (more than 50% control value)
2 | CCCc1cc(Br)c(=O)n(CC)c1-c1ccc(OC)cc1Cl [compound 321] | H (more than 50% control value) | H (more than 50% control value) | H (more than 50% control value) | L (50% or less control value) | H (more than 50% control value) | H (more than 50% control value) | H (more than 50% control value) | H (more than 50% control value)
3 | CCc1ccc(=O)n(C)c1-c1ccc(OC)cc1Cl [compound 322] | L (50% or less control value) | L (50% or less control value) | H (more than 50% control value) | L (50% or less control value) | H (more than 50% control value) | L (50% or less control value) | H (more than 50% control value) | L (50% or less control value)
4 | CCCC1=C(c2ccc(F)cc2Cl)N(C)C(=O)CC1 [compound 323] | L (50% or less control value) | L (50% or less control value) | L (50% or less control value) | L (50% or less control value) | H (more than 50% control value) | L (50% or less control value) | L (50% or less control value) | L (50% or less control value)
5 | CCc1cc(Cl)c(=O)n(C)c1-c1ccc(OC)cc1Cl [compound 324] | L (50% or less control value) | H (more than 50% control value) | H (more than 50% control value) | L (50% or less control value) | H (more than 50% control value) | H (more than 50% control value) | H (more than 50% control value) | L (50% or less control value)
6 | CCc1cc(Br)c(=O)n(C)c1-c1ccc(OC)cc1Cl [compound 325] | L (50% or less control value) | H (more than 50% control value) | H (more than 50% control value) | L (50% or less control value) | H (more than 50% control value) | H (more than 50% control value) | H (more than 50% control value) | L (50% or less control value)
7 | CCn1c(-c2c(F)cc(F)cc2F)c(C(Br)=CBr)cc(Cl)c1=O [compound 326] | H (more than 50% control value) | H (more than 50% control value) | H (more than 50% control value) | L (50% or less control value) | H (more than 50% control value) | L (50% or less control value) | H (more than 50% control value) | H (more than 50% control value)
8 | CCc1cc(Cl)c(=O)n(CC)c1-c1ccc(OC)cc1Cl [compound 327] | H (more than 50% control value) | H (more than 50% control value) | H (more than 50% control value) | H (more than 50% control value) | H (more than 50% control value) | H (more than 50% control value) | H (more than 50% control value) | L (50% or less control value)
9 | CCc1cc(Br)c(=O)n(CC)c1-c1ccc(OC)cc1Cl [compound 328] | H (more than 50% control value) | H (more than 50% control value) | H (more than 50% control value) | L (50% or less control value) | H (more than 50% control value) | H (more than 50% control value) | H (more than 50% control value) | L (50% or less control value)
10 | CCCc1ccc(=O)n(C)c1-c1ccc(F)cc1Cl [compound 329] | L (50% or less control value) | L (50% or less control value) | H (more than 50% control value) | L (50% or less control value) | H (more than 50% control value) | L (50% or less control value) | L (50% or less control value) | H (more than 50% control value)
11 | CCc1cc(Cl)c(=O)n(C)c1-c1ccc(O)cc1Cl [compound 330] | L (50% or less control value) | L (50% or less control value) | L (50% or less control value) | L (50% or less control value) | H (more than 50% control value) | H (more than 50% control value) | L (50% or less control value) | L (50% or less control value)
12 | CCCc1ccc(=S)n(CC)c1-c1ccc(F)cc1Cl [compound 331] | L (50% or less control value) | L (50% or less control value) | H (more than 50% control value) | L (50% or less control value) | H (more than 50% control value) | L (50% or less control value) | H (more than 50% control value) | H (more than 50% control value)
13 | CCCc1cc(Cl)c(=O)n(C)c1-c1ccc(F)cc1Cl [compound 332] | H (more than 50% control value) | H (more than 50% control value) | H (more than 50% control value) | L (50% or less control value) | H (more than 50% control value) | L (50% or less control value) | H (more than 50% control value) | H (more than 50% control value)
14 | CCCc1ccc(=O)n(C)c1-c1ccc(OC)cc1Cl [compound 334] | L (50% or less control value) | L (50% or less control value) | H (more than 50% control value) | L (50% or less control value) | H (more than 50% control value) | L (50% or less control value) | L (50% or less control value) | H (more than 50% control value)
15 | CCCc1cc(Cl)c(=O)n(C)c1-c1ccc(OC)cc1Cl [compound 335] | H (more than 50% control value) | H (more than 50% control value) | H (more than 50% control value) | L (50% or less control value) | H (more than 50% control value) | H (more than 50% control value) | H (more than 50% control value) | H (more than 50% control value)
16 | CCCc1cc(Br)c(=O)n(C)c1-c1ccc(OC)cc1Cl [compound 336] | H (more than 50% control value) | H (more than 50% control value) | H (more than 50% control value) | L (50% or less control value) | H (more than 50% control value) | H (more than 50% control value) | H (more than 50% control value) | L (50% or less control value)
17 | CCOc1ccc(-c2c(CC)cc(Cl)c(=O)n2C)c(Cl)c1 [compound 337] | L (50% or less control value) | L (50% or less control value) | H (more than 50% control value) | L (50% or less control value) | H (more than 50% control value) | L (50% or less control value) | H (more than 50% control value) | L (50% or less control value)
18 | CCC1=C(c2ccc(F)cc2Br)N(CC)C(=O)CC1 [compound 338] | L (50% or less control value) | H (more than 50% control value) | L (50% or less control value) | L (50% or less control value) | L (50% or less control value) | L (50% or less control value) | L (50% or less control value) | L (50% or less control value)
